Measured values from US20250171438A1 (Agios Pharmaceuticals, Inc., priority 2022, published 2025).

target: T1, human PAH with the R408W mutation (Homo sapiens, UniProt P00439, R408W); assay: Cell Based Phenylalanine Flux Assay; parameters: scale not given here; details: A375 cells expressing human R408W PAH; 24 hrs compound incubation; 13C-Tyrosine by LC-MS; average where tested multiple times; read-out: AC50
T1 construct: expressed in transfected cells
T1 sequence (P00439 1-452 R408W): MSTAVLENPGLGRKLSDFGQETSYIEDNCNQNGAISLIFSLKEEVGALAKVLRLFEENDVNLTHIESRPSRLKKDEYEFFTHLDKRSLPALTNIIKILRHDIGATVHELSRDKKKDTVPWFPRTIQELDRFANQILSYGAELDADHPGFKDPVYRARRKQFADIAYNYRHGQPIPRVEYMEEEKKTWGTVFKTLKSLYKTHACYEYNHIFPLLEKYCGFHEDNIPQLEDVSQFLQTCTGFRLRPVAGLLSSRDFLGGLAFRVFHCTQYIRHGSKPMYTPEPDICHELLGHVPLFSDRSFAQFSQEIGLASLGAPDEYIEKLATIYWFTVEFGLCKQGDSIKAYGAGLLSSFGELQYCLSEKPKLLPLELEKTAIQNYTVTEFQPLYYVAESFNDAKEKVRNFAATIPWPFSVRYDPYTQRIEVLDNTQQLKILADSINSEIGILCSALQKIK

AC50 [nM]	SMILES
> 5000	c1ccc2[nH]c([C@H]3c4nc[nH]c4CCN3Cc3nccs3)nc2c1 (single isomer, unassigned) [Example 926]
< 500	c1ccc2[nH]c([C@@H]3c4nc[nH]c4CCN3Cc3nccs3)nc2c1 (single isomer, unassigned) [Example 927]
< 500	O=C(CC1CC1(F)F)N1CCc2[nH]cnc2[C@H]1c1nc2ccccc2s1 (single isomer, unassigned) [Example 1271]
500 to 1000	O=C(CC1CC1(F)F)N1CCc2[nH]cnc2[C@H]1c1nc2ccccc2s1 (single isomer, unassigned) [Example 1274]
> 5000	O=C(C1CC1(F)F)N1CCc2[nH]cnc2[C@@H]1c1nc2ccccc2s1 (single isomer, unassigned) [Example 1285]
1000 to 5000	O=C(C1CC1(F)F)N1CCc2[nH]cnc2[C@@H]1c1nc2ccccc2s1 (single isomer, unassigned) [Example 1286]
> 5000	O=C(C1CC1(F)F)N1CCc2[nH]cnc2[C@H]1c1nc2ccccc2s1 (single isomer, unassigned) [Example 1287]
500 to 1000	O=C(C1CC1(F)F)N1CCc2[nH]cnc2[C@H]1c1nc2ccccc2s1 (single isomer, unassigned) [Example 1288]
1000 to 5000	CC1(C(=O)N2CCc3[nH]cnc3[C@@H]2c2nc3ccccc3s2)CC1(F)F (single isomer, unassigned) [Example 1289]
> 5000	CC1(C(=O)N2CCc3[nH]cnc3[C@@H]2c2nc3ccccc3s2)CC1(F)F (single isomer, unassigned) [Example 1290]
500 to 1000	CC1(C(=O)N2CCc3[nH]cnc3[C@H]2c2nc3ccccc3s2)CC1(F)F (single isomer, unassigned) [Example 1291]
1000 to 5000	CC1(C(=O)N2CCc3[nH]cnc3[C@H]2c2nc3ccccc3s2)CC1(F)F (single isomer, unassigned) [Example 1292]
< 500	O=C(c1nnc(-c2ccc(F)cn2)o1)N1CCc2[nH]cnc2[C@H]1c1nc2ccccc2s1 (single isomer, unassigned) [Example 1365]
1000 to 5000	Nc1cnc(N2CCc3[nH]cnc3[C@@H]2c2nc3ccccc3s2)nc1 (single isomer, unassigned) [Example 1467]
500 to 1000	Nc1cnc(N2CCc3[nH]cnc3[C@H]2c2nc3ccccc3s2)nc1 (single isomer, unassigned) [Example 1468]
< 500	CC(O)(c1nc(C(F)(F)F)c(C(=O)N2CCc3[nH]cnc3[C@H]2c2nc3ccccc3s2)o1)C1CC1 (single isomer, unassigned) [Example 1561]

AC50 [nM]	SMILES
< 500	CC(O)(c1nc(C(F)(F)F)c(C(=O)N2CCc3[nH]cnc3[C@H]2c2nc3ccccc3s2)o1)C1CC1 (single isomer, unassigned) [Example 1562]
< 500	CC(O)(c1nc(C(F)(F)F)c(C(=O)N2CCc3[nH]cnc3[C@@H]2c2nc3ccccc3s2)o1)C1CC1 (single isomer, unassigned) [Example 1563]
< 500	CC(O)(c1nc(C(F)(F)F)c(C(=O)N2CCc3[nH]cnc3[C@@H]2c2nc3ccccc3s2)o1)C1CC1 (single isomer, unassigned) [Example 1564]
< 500	CC(O)c1nc(Br)c(C(=O)N2CCc3[nH]cnc3[C@H]2c2nc3c(F)cccc3s2)o1 (single isomer, unassigned) [Example 2057]
< 500	CC(O)c1nc(Br)c(C(=O)N2CCc3[nH]cnc3[C@H]2c2nc3c(F)cccc3s2)o1 (single isomer, unassigned) [Example 2058]
1000 to 5000	CC(O)c1nc(Br)c(C(=O)N2CCc3[nH]cnc3[C@@H]2c2nc3c(F)cccc3s2)o1 (single isomer, unassigned) [Example 2059]
500 to 1000	CC(O)c1nc(Br)c(C(=O)N2CCc3[nH]cnc3[C@@H]2c2nc3c(F)cccc3s2)o1 (single isomer, unassigned) [Example 2060]
< 500	CC(F)c1nc(C(F)F)c(C(=O)N2CCc3[nH]cnc3[C@H]2c2nc3c(F)cccc3s2)o1 (single isomer, unassigned) [Example 2073]
< 500	CC(F)c1nc(C(F)F)c(C(=O)N2CCc3[nH]cnc3[C@H]2c2nc3c(F)cccc3s2)o1 (single isomer, unassigned) [Example 2074]
< 500	CC(F)c1nc(C(F)F)c(C(=O)N2CCc3[nH]cnc3[C@H]2c2nc3c(F)cccc3s2)o1 (single isomer, unassigned) [Example 2075]
< 500	CC(O)c1nc(Cl)c(C(=O)N2CCc3[nH]cnc3[C@H]2c2nc3c(F)cccc3s2)o1 (single isomer, unassigned) [Example 2079]
500 to 1000	CC(O)c1nc(Cl)c(C(=O)N2CCc3[nH]cnc3[C@H]2c2nc3c(F)cccc3s2)o1 (single isomer, unassigned) [Example 2080]
1000 to 5000	CC(O)c1nc(Cl)c(C(=O)N2CCc3[nH]cnc3[C@@H]2c2nc3c(F)cccc3s2)o1 (single isomer, unassigned) [Example 2081]
1000 to 5000	CC(O)c1nc(Cl)c(C(=O)N2CCc3[nH]cnc3[C@@H]2c2nc3c(F)cccc3s2)o1 (single isomer, unassigned) [Example 2082]
500 to 1000	CN(C)CCc1nc(C(F)(F)F)c(C(=O)N2CCCc3[nH]cnc3[C@H]2c2nc3ccccc3s2)o1 (single isomer, unassigned) [Example 2125]
1000 to 5000	CN(C)CCc1nc(C(F)(F)F)c(C(=O)N2CCCc3[nH]cnc3[C@@H]2c2nc3ccccc3s2)o1 (single isomer, unassigned) [Example 2126]

same assay, conditions: A375 cells expressing human R408W PAH; 24 hrs with compound; 13C-Tyrosine by LC-MS; average where tested multiple times

AC50	SMILES
E, E	COCCc1ncc(C(=O)N2CC(C)c3[nH]cnc3C2c2nc3ccccc3s2)o1 [(4R,7R) diastereomer of 2-[5-[2-(2-methoxyethyl)-1,3-oxazole]
E, E	COCCc1ncc(C(=O)N2CC(C)c3[nH]cnc3C2c2nc3ccccc3s2)o1 [(4R,7S) diastereomer of 2-[5-[2-(2-methoxyethyl)-1,3-oxazole]

same assay, conditions: A375 cells expressing human R408W PAH; 24 hrs with compound; 13C-Tyrosine by LC-MS; average where tested multiple times; read-out: AC50

SMILES	AC50 [nM]
CC(=O)Cn1ncc(C(=O)N2CCc3[nH]cnc3[C@@H]2c2nc3c(F)cccc3s2)c1Cl (single isomer, unassigned)	> 5000
Cn1nc(C2CC2)cc1C(=O)N1CCc2[nH]cnc2[C@@H]1c1nc2c(F)cccc2s1 (single isomer, unassigned)	> 5000
Cn1ncc(C(=O)N2CCc3[nH]cnc3[C@@H]2c2nc3c(F)cccc3s2)c1Br (single isomer, unassigned)	> 5000
Cn1ncnc1C(=O)N1CCc2[nH]cnc2[C@@H]1c1nc2c(F)cccc2s1 (single isomer, unassigned)	> 5000
Cc1nc(C(C)(C)S(C)(=O)=O)oc1C(=O)N1CCc2[nH]cnc2[C@@H]1c1nc2c(F)cccc2s1 (single isomer, unassigned)	> 5000
Cn1nc(CO)cc1C(=O)N1CCc2[nH]cnc2[C@@H]1c1nc2c(F)cccc2s1 (single isomer, unassigned)	> 5000
COC(=O)N1CC(C(=O)N2CCc3[nH]cnc3[C@@H]2c2nc3c(F)cccc3s2)C1 (single isomer, unassigned)	> 5000
Cc1c(C(=O)N2CCc3[nH]cnc3[C@H]2c2nc3c(F)cccc3s2)cnn1C (single isomer, unassigned)	1000 to 5000
Cn1nc(CC#N)nc1C(=O)N1CCc2[nH]cnc2[C@H]1c1nc2ccccc2s1 (single isomer, unassigned)	1000 to 5000
CC(C)(O)c1cc(C(=O)N2CCc3[nH]cnc3[C@H]2c2nc3ccccc3s2)sn1 (single isomer, unassigned)	1000 to 5000
O=C(N1CCC(O)C1)N1CCc2[nH]cnc2C1c1nc2ccccc2s1 [4S enantiomer of (3R)-1-[4-(1,3-benzothiazol-2-yl)-1H,4H,5H,]	1000 to 5000
O=C(Cc1nc(C(F)(F)F)cs1)N1CCc2[nH]cnc2[C@H]1c1nc2ccccc2[nH]1 [(S)-1-(4-(1H-benzo[d]imidazol-2-yl)-1,4,6,7-tetrahydro-5H-imidazo[4,5-c]pyridin-5-yl)-2-(4-(trifluoromethyl)thiazol-2-yl)ethan-1-one]	1000 to 5000
O=C(Cc1ccc(F)cc1)N1CCc2[nH]cnc2[C@H]1c1nc2ccccc2[nH]1 [(S)-1-(4-(1H-benzo[d]imidazol-2-yl)-1,4,6,7-tetrahydro-5H-imidazo[4,5-c]pyridin-5-yl)-2-(4-fluorophenyl)ethan-1-one]	1000 to 5000
Cc1nnc(CC(=O)N2CCc3[nH]cnc3[C@H]2c2nc3ccccc3[nH]2)s1 [(S)-1-(4-(1H-benzo[d]imidazol-2-yl)-1,4,6,7-tetrahydro-5H-imidazo[4,5-c]pyridin-5-yl)-2-(5-methyl-1,3,4-thiadiazol-2-yl)ethan-1-one]	> 5000
O=C(CCc1nc(Cl)cs1)N1CCc2[nH]cnc2[C@H]1c1nc2ccccc2[nH]1 [(S)-1-(4-(1H-benzo[d]imidazol-2-yl)-1,4,6,7-tetrahydro-5H-imidazo[4,5-c]pyridin-5-yl)-3-(4-chlorothiazol-2-yl)propan-1-one]	1000 to 5000
Cc1csc(CCC(=O)N2CCc3[nH]cnc3[C@H]2c2nc3ccccc3[nH]2)n1 [(S)-1-(4-(1H-benzo[d]imidazol-2-yl)-1,4,6,7-tetrahydro-5H-imidazo[4,5-c]pyridin-5-yl)-3-(4-methylthiazol-2-yl)propan-1-one]	1000 to 5000
